Experimental data reported in PMC6010047, “Design, synthesis and biological evaluation of novel hydroxy-phenyl-1H-benzimidazoles as radical scavengers and UV-protective agents” (Journal of Enzyme Inhibition and Medicinal Chemistry, 2017).
Entries after “also recorded” stand apart in the source; their conditions may differ. Where two headings read alike, the source gives them in different places.

Legend:
[1] = 1,1-Diphenyl-2-picryl-hydrazyl radical (DPPH) assay; format: biochemical; conditions: Trolox equivalents; mean ± SE of three experiments
Protocol: To 1.5 mL DPPH methanolic solution (0.5 mM) was added 0.750 mL of sample solution proper diluted. Samples absorbance measurements were evaluated with a UV-VIS spectrophotometer (Thermo Spectronic Helios γ, Cambridge, UK) at fixed wavelength of 517 nm. Blank sample was prepared adding methanol to DPPH solution and Trolox was used as standard reference to achieve a calibration curve. The radical-scavenging activity is expressed as inhibition ratio of initial concentration of DPPH radical and is calculated according to the formula: Inhibition percentage (Ip) = [(AB-As)/AB]·100; where AB and As are, respectively, the absorbance values of blank reaction and of the tested sample[25].

[2] = UV spectra: λmax and molar extinction coefficient; format: physicochemical; conditions: for λ max: aqueous solution at pH 7; for ɛ (molar extinction coefficient): aqueous solution at pH 7, at λ max, linear regression Lambert–Beer
Protocol: Sun protection factor (SPF) is related to the UV absorption of the substances, so before including the molecules in cosmetic formulations we evaluated the wavelength of maximum absorption (λmax) and the molar extinction coefficient (ɛ) of each molecule in aqueous solution at pH 7. The UV spectra were recorded between 270 and 420 nm (20 nm higher and lower then UVA and UVB range) to verify the spectrum profile of the molecules within UVA and UVB region. UV spectrum of PBSA is an UVB filter and presents a λmax of 302 nm; after this peak, the absorbance fades going to higher wavelength until almost zero around 325 nm, and then, it provides no absorption in the UVA region. Molecules spectra overlapped for category according to the substituent in position 5 of the benzimidazole ring are shown in Figures 1, 2 and 3; PBSA spectrum is presented in all figures for comparison.
From the spectra appears that the lambda maxima (Table 2) of the new molecules shifted toward higher wavelength and in general the range of absorption curve was wider than PBSA. Within a group of molecules, the batochromic shift was more marked for the molecules that have a hydroxyl moiety in position 2 of the phenyl ring (4, 5, 6, 9, 10, 11, 13 and […]); the effect of ortho substituted is known to produce this shift toward higher wavelength. Increasing the number of auxochrome groups on phenyl ring an increment in the absorption range occurred, compounds with three hydroxyl on the phenyl ring (6, 11, 15) had the broadest spectrum and their lambda maxima shifted at the highest wavelength compared to the other compounds. The absorption spectrum of molecules with the same number and position of hydroxyl seemed only slightly influenced by the substituent in position 5 of the benzimidazole ring. After having established the lambda maxima for every compound, solutions at different concentrations were prepared to calculate the molar extinction coefficient by means of linear regression and applying Lambert–Beer equation (Table 2).

[3] = PCL antioxidant activity of finished formulations; format: biochemical; conditions: 3% (w/w) compound in O/W formulation
Protocol: PCL assay, based on the methodology of Popov and Lewin[23], was used to measure the antioxidant activity of synthesized compounds with a Photochem® apparatus (Analytik Jena, Leipzig, Germany) against superoxide anion radicals generated from luminol, a photosensitizer, when exposed to UV light (Double Bore® phosphor lamp, output 351 nm, 3 mWatt/cm^2). The antioxidant activity was measured using ACL (Antioxidant Capacity of Liposoluble substance) kit provided by the manufacturer designed to measure the antioxidant activity of lipophilic compounds[24]. […] The areas under the curves were calculated using the PCLsoft control and analysis software. […] This inhibition was used as a parameter for quantification and related to the decrease in the integral of PCL intensities caused by varying concentrations of Trolox. The observed inhibition of the signal was plotted against the concentration of Trolox added to the assay medium. The concentration of the added tested compounds was such that the generated luminescence during the 180-s sampling interval fell within the limits of the standard curve. The antioxidant assay was carried out in triplicate for each sample, and 20 μL of the diluted compound in HPLC-grade methanol (ACL) was sufficient to correspond to the standard curve.
It was decided to use a standard formulation oil in water (O/W).
In particular, molecules with phenolic hydroxyl in the ortho position on the phenyl ring (4, 5, 9, 10 and 13) had better and higher UVA/UVB ratio and critical wavelength, although they have the SPF value less than lead compound. Formulation containing products 2 and 14, which have a phenolic hydroxyl at the para position on the phenyl ring, have shown good values in terms of SPF, greater UVA protection factor, critical wavelength and also higher UVA/UVB ratio than PBSA, but yet lower than the molecules containing hydroxyl on the phenyl ring in ortho. […] Compound 8 has lower SPF than 3, but higher than PBSA; in comparison with 3, molecules 8 and 12 presented higher UVA/UVB ratio and critical wavelength. Regarding compounds with three hydroxyls on phenyl ring, they have good UVA filtering parameters, their critical wavelengths are the highest and SPF is higher than PBSA for molecule 6, while SPF of 15 is slightly lower and decreases further in molecule 11. Thus, it can be observed that parameters are mainly influenced by the number and position of the hydroxyl groups on the phenyl ring rather than the substituent in the 5-position of benzimidazole. Concomitantly, all formulations were analyzed to assess whether the antioxidant power was maintained. […] In Table 4, the antioxidant activity, measured by PCL method, of finished formulations is reported; as it can be seen results were in agreement with that obtained testing the pure compounds. […] Formulations containing compounds 3, 8 and 12 presented highest antioxidant capabilities; these are followed, but with important decrease in antioxidant capacity, by formulations with compounds 6, […] and 15 that have three hydroxyl moieties on phenyl ring.

[4] = tested on: NCTC-2544 cells; assay: Phototoxicity / cellular photoprotection, UVA or UVB irradiation, MTT test; conditions: for % Cell survival UVA 20 J/cm^2 / % Cell survival UVB 0.5 J/cm^2 / % Cell survival UVB 1 J/cm^2: 50 μM, vs nonirradiated cells (100%), 48 h after irradiation; for viability at 50 µM / viability at 20 µM: Homo sapiens, NCTC-2544, light or radiation study, 48 h; for cell survival in relation to the irradiated control: after UVB irradiation 1 J/cm^2; for phototoxic effect (cell survival vs irradiated control): NCTC-2544, UVA/UVB irradiation
Protocol: An immortalized, nontumorigenic cell line of human keratinocytes (NCTC-2544) was grown in a DMEM medium (Sigma-Aldrich Milan, Italy), supplemented with 115 units/mL of penicillin G, 115 μg/mL streptomycin, and 10% fetal calf serum (Invitrogen, Milan, Italy). Individual wells of a 96-well tissue culture microtiter plates (Falcon, Becton–Dickinson) were inoculated with 100 μL of complete medium containing 5 × 10^3 NCTC-2544. The plates were incubated at 37 °C in a humidified (5% CO2) incubator for 18 h prior to the experiments.
Two HPW 125 Philips lamps, mainly emitting at 365 nm, were used for UVA irradiation experiments. The spectral irradiance of the source was 4.0 mWcm^−^2 as measured at the sample level by a Cole-Parmer Instrument Company radiometer (Niles, IL) equipped with a 365-CX sensor. One or two PL-S 9 W/12 Philips lamps (280–370 nm; peak at 315 nm) were used for UVB irradiation experiments. To restrict the incident radiation to the range 305–370 nm, a glass filter (Schott SWG-305) was used. Total energy was detected by the same equipped with a sensor (model CX-312).
After medium removal, 100 μL of the drug solution, dissolved in DMSO and diluted with Hank’s Balanced Salt Solution (HBSS pH =7.2), was added to each well, incubated at 37 °C for 30 min, and then irradiated (20 J/cm^2 for UVA and 0.5 and 1 J/cm^2 for UVB). After irradiation, the solution was replaced with the medium and the plates were further incubated for 48 h. Cell viability was assayed by the MTT [(3–(4,5-dimethylthiazol-2-yl)-2,5 diphenyl tetrazolium bromide)] test as previously described by Mosmann[27].
Molecules were verified for their photocytotoxicity in the same cell line; the cells were treated with 50 μM solutions of compound and after 30 min were irradiated with 20 J/cm^2 UVA or with UVB at two energy amounts: 0.5 J/cm^2 and 1 J/cm^2 UVB. […] After irradiation, the solution was replaced with growth medium and the cells were further incubated for 48 h, and then, cell viability was assessed by MTT assay. […] The phototoxicity of tested molecules was compared with the ratio of cell survival of irradiated keratinocytes without substance (IC = irradiated control).

[5] = read-out: % Cell survival UVA 20 J/cm^2
[6] = read-out: % Cell survival UVB 0.5 J/cm^2
[7] = read-out: % Cell survival UVB 1 J/cm^2

Compound | λ max [2] | ɛ (molar extinction coefficient) [2] | DPPH [1] | PCL of finished formulation [3] | % Cell survival UVA 20 J/cm^2 [4] | % Cell survival UVB 0.5 J/cm^2 [4] | % Cell survival UVB 1 J/cm^2 [4] | viability at 50 µM [4, 5] | viability at 50 µM [4, 6] | viability at 50 µM [4, 7] | cell survival in relation to the irradiated control [4] | phototoxic effect (cell survival vs irradiated control) [4] | viability at 20 µM [4, 5] | viability at 20 µM [4, 6] | viability at 20 µM [4, 7]
O=S(=O)(O)c1ccc2[nH]c(-c3ccc(O)cc3O)nc2c1 [Compound 5, 2-(2,4-Dihydroxy-phenyl)-1H-benzimidazole-5-sulfonic acid] | 318 nm | 23 000 | 21.41 ± 043 μmolTrolox/mmol | 0.95 ± 0.02 μmol Trolox/g formulation |  |  |  | 79 ± 6% | 70.8 ± 3.9% | 38.6 ± 3.7% |  |  |  |  | 
2-(2-Hydroxy-phenyl)-1H-benzimidazole [Compound 10] | 315 nm | 17 000 | 0.87 ± 0.05 μmolTrolox/mmol | 0.5 ± 0.02 μmol Trolox/g formulation | 4.8 ± 0.6% | 19.8 ± 2.4% | 3.5 ± 0.3% |  |  |  |  | phototoxic effect |  |  | 
O=S(=O)(O)c1ccc2[nH]c(-c3ccc(O)c(O)c3)nc2c1 [Compound 3, 2-(3,4-Dihydroxy-phenyl)-1H-benzimidazole-5-sulfonic acid] | 313 nm | 23 000 | 2145.31 ± 45.8 μmolTrolox/mmol | 2212.09 ± 68.35 μmol Trolox/g formulation |  |  |  | 77.4 ± 4% | 71.5 ± 2.5% | 58.1 ± 2.6% | doubled |  |  |  | 
Oc1ccc(-c2nc3ccccc3[nH]2)cc1O [Compound 8, 2-(3,4-Dihydroxy-phenyl)-1H-benzimidazole] | 311 nm | 16 000 | 1974.58 ± 16.89 μmolTrolox/mmol | 2972.107 ± 145.63 μmol Trolox/g formulation |  |  |  | 62.9 ± 4.3% | 72.8 ± 1% | 43.9 ± 3.4% |  |  |  |  | 
O=S(=O)(O)c1ccc2[nH]c(-c3ccc(O)cc3)nc2c1 [Compound 2, 2-(4-Hydroxy-phenyl)-1H-benzimidazole-5-sulfonic acid] | 308 nm | 25 000 | 2.04 ± 0.15 μmolTrolox/mmol | 0.33 ± 0.03 μmol Trolox/g formulation |  |  |  |  |  |  |  |  | 77.3 ± 2.8% | 78 ± 3.5% | 46.7 ± 3.4%
O=S(=O)(O)c1ccc2[nH]c(-c3ccccc3)nc2c1 [PBSA, 2-phenyl-1H-benzimidazole-5-sulfonic acid, reference compound] | 302 nm | 25 000 | devoided of any activity; also recorded: < LOQ^a | <LOQ^b |  |  |  | 74.5 ± 1.4% | 75.2 ± 4.5% | 64.2 ± 3.1% | doubled |  |  |  | 
O=S(=O)(O)c1ccc2[nH]c(-c3ccc(O)c(O)c3O)nc2c1 [Compound 6, 2-(2,3,4-Trihydroxy-phenyl)-1H-benzimidazole-5-sulfonic acid] | 328 nm | 22200 L/mol/cm | 1362.12 ± 133.96 μmolTrolox/mmol | 101.98 ± 1.08 μmol Trolox/g formulation |  |  |  |  |  |  |  | phototoxic effect | 18.4 ± 2.3% | 59.3 ± 3.4% | 29.7 ± 2.1%
O=S(=O)(O)c1ccc2[nH]c(-c3ccccc3O)nc2c1 [Compound 4, 2-(2-Hydroxy-phenyl)-1H-benzimidazole-5-sulfonic acid] | 315 nm | 21 000 | 2.03 ± 0.09 μmolTrolox/mmol | 0.06 ± 0.02 μmol Trolox/g formulation |  |  |  | 76.9 ± 2% | 74.3 ± 3.2% | 37.7 ± 1.7% |  |  |  |  | 

Continued, in another order:

λ max [2] | ɛ (molar extinction coefficient) [2] | Compound | DPPH [1] | PCL of finished formulation [3] | % Cell survival UVA 20 J/cm^2 [4] | % Cell survival UVB 0.5 J/cm^2 [4] | % Cell survival UVB 1 J/cm^2 [4] | viability at 50 µM [4, 5] | viability at 50 µM [4, 6] | viability at 50 µM [4, 7] | cell survival in relation to the irradiated control [4] | phototoxic effect (cell survival vs irradiated control) [4] | viability at 20 µM [4, 5] | viability at 20 µM [4, 6] | viability at 20 µM [4, 7]
315 nm | 14 000 | 2-(2,4-Dihydroxy-phenyl)-1H-benzimidazole [Compound 9] | 16.47 ± 0.54 μmolTrolox/mmol | 8.66 ± 0.04 μmol Trolox/g formulation | 3.7 ± 0.5% | 1.1 ± 0.3% | 0.5 ± 0.1% |  |  |  |  |  |  |  | 
317 nm | 21 000 | O=C(O)c1ccc2[nH]c(-c3ccc(O)c(O)c3)nc2c1 [Compound 12, 2-(3,4-Dihydroxy-phenyl)-1H-benzimidazole-5-carboxylic acid] | 1771.82 ± 84.75 μmolTrolox/mmol | 1373.39 ± 19.43 μmol Trolox/g formulation |  |  |  | 74.3 ± 2% | 76.3 ± 3.6% | 64.5 ± 3.5% | doubled |  |  |  | 
332 nm | 17 000 | O=C(O)c1ccc2[nH]c(-c3ccc(O)c(O)c3O)nc2c1 [Compound 15, 2-(2,3,4-Trihydroxy-phenyl)-1H-benzimidazole-5-carboxylic acid] | 1241.03 ± 9.43 μmolTrolox/mmol | 86.99 ± 6.95 μmol Trolox/g formulation |  |  |  | 12.2 ± 1.3% | 60.1 ± 2.3% | 25.6 ± 2.7% |  | phototoxic effect |  |  | 
312 nm | 24 000 | O=C(O)c1ccc2[nH]c(-c3ccc(O)cc3)nc2c1 [Compound 14, 2-(4-Hydroxy-phenyl)-1H-benzimidazole-5-carboxylic acid] | 1.185 ± 0.02 μmolTrolox/mmol | 0.16 ± 0.02 μmol Trolox/g formulation |  |  |  | 76.7 ± 3.4% | 74.2 ± 3.4% | 58.4 ± 2.5% | doubled |  |  |  | 
321 nm | 20 000 | O=C(O)c1ccc2[nH]c(-c3ccc(O)cc3O)nc2c1 [Compound 13, 2-(2,4-Dihydroxy-phenyl)-1H-benzimidazole-5-carboxylic acid] | 32.48 ± 2.38 μmolTrolox/mmol | 4.97 ± 0.17 μmol Trolox/g formulation |  |  |  | 80.7 ± 1.3% | 69 ± 0.2% | 57.5 ± 2.4% | doubled |  |  |  | 
